In one test the test system is human basophils. Description: Histamine release from human basophils (HHB), anti-IgE challenge. It is filed as cell-based. Set-up: key to HHB % Inhibition of Histamine Release at 33 µM: *: Indicates not active at 33 µM. The note with it: 33 µM drug, human basophils challenged with anti-IgE. The source says:
HISTAMINE RELEASE FROM HUMAN BASOPHILS (hereinafter HHB)
The HHB assay quantitates active histamine release, and its inhibition by drugs, from basophils of human blood. Thus, the assay provides evaluation of the compounds of formula I for treating the conditions or diseases as is the present invention. As described herein the assay includes modifications of the method described by R. P. Siraganian in "An Automated Continuous-Flow System for the Extraction and Fluorometric Analysis of Histamine", Anal. Biochem., 57, 383-394 (1974).
Blood is drawn from allergic donors (chosen on the basis of adequate histamine release induced by a challenge), using standard venipuncture methods, into Vacutainers with EDTA in water as anticoagulant. The blood samples are placed briefly on a rotary mixer. The blood is mixed with Hespan (hydroxy ethyl starch, 0.5 ml per 1.0 ml of blood), the tube inverted several times to mix and then left undisturbed at room temperature until a sharp separation is observed between the settled red cells and the leukocyte and platelet-rich plasma. This usually occurs within 35-45 minutes.
The plasma fraction is removed and centrifuged for 12 minutes at 4°C at 1050 RPM (100 Xg). The platelets remain in the plasma and are discarded. The pelleted leukocytes are shaken gently to disrupt the cell button and washed twice with HA buffer containing 0.005 M EDTA and resuspended in HACM buffer to approximately one-quarter the original blood volume. A sample is prepared for Hematology, where a total white blood cell and platelet count is done using a Coulter Counter.
Aliquots (0.1 ml) of cells are added to triplicate assay tubes containing 0.4 ml of either 6% perchloric acid (for total histamine content), vehicle control (for spontaneous release), or drug. The tubes are incubated at room temperature for 8 minutes, and then placed in a 37°C water bath for 2 more minutes. Buffer or challenge agents (at 37°C) are added to the tubes and they are incubated for an additional 45 minutes at 37°C in a shaking water bath. The tubes are then spun at 2000 RPM (1200 g) for 3 minutes to pellet the cells and the supernatants are removed and assayed for histamine by the fluorometric method.
A 300 µM stock solution of each test compound is prepared in distilled water, using 0.5 ml DMSO/100 ml and/or 0.2 ml of 1N NaOH or HCl and/or heat to aid in dissolution. Five ml of the stock solution is diluted (1:2) with 5 ml of two times concentrated HACM buffer to yield the stock working concentration of 150 µM. When added to the cells and stimulus, a final test concentration of 100 µM drug results. Further dilutions are made with HACM buffer for 33, 10, 3.3, 1.0 µM, etc.
Short ragweed and house dust extracts (Greer Laboratories, Inc.) are supplied as aqueous extracts in stock concentrations of 40,000 and 10,000 protein nitrogen units per milliliter (PNU/ml), respectively. Aqueous solutions of anti-IgE antisera (rabbit-raised antibody) are purchased from Dako via Accurate Chemicals. The aqueous solutions of ragweed, house dust, and anti-IgE are diluted 1:2 with two times concentrated HACM and then further diluted with HACM to yield final stock concentrations of 6000 PNU/ml for ragweed and house dust and 1:50 dilution for the anti-IgE antisera. Further dilutions for working solutions are made in HACM buffer. All stock and working solutions are stored at 4°C. Working solutions comprise 1/6 of the final volume in the cell reaction, therefore, working solutions of challenge agents are made up six times the required final concentration.
In each experiment, cells are challenged according to the previously determined sensitivity of that donor to the particular challenge agent. Short ragweed and house dust concentrations are expressed in PNU/ml, and anti-IgE antisera is expressed as dilutions, e.g., IE-5 (1:100,000), 3E-5 (1:30,000), and IE-4 (1:10,000).
The total histamine concentration in the "total" (acid-treated) samples must be 15 ng/ml to be acceptable. […]

Test [1] relates to cellular 5-cyclooxygenase. Description: ARBC whole cell cyclooxygenase assay (PGF2α formation in RBL-1 cells). Set-up: key: N inactive at screening concentration. As to conditions: A23187 stimulated, PGF2α by RIA. It is filed as cell-based, rat. The protocol: (§1) ARBL/ARBC Whole Cell 5-Lipoxygenase and Cyclooxygenase Assays The rat basophilic Leukemia cell line (RBL-1) was obtained from the American Type Culture Collection (Rockville, MD). Radioimmunoassay (RIA) kits of LTB₄ and PGF2α were obtained from Amersham (Arlington Heights, IL) and Seragen (Boston, MA), respectively. RBL-1 cells are grown in suspension culture in Eagle's minimum essential medium supplemented with 12% fetal bovine serum at 37°C in an incubator supplied with air-5% carbon dioxide. Cells are harvested by centrifugation. They are washed with cold phosphate buffered saline pH 7.4 (PBS; NaCl, 7.1 g; Na₂HPO₄, 1.15 g; KH₂PO₄, 0.2 g; and KCl, 0.2 g/l). Cells are finally suspended in PBS containing 1.0 mM calcium at a density of 2 x 10⁶ cells/ml. […] Calcium ionophore A23187 (5 µM) is added and cells are incubated for seven minutes at 37°C. The reaction is stopped by chilling the tubes on ice for ten minutes. Cells are separated by centrifugation and the supernatant is stored at -20°. Aliquots (100 µl) are analyzed for LTB₄ and PGF2α using radioimmunoassay kits as provided by the supplier. Table 1 contains biochemical data obtained from this whole cell assay as IC₅₀s which are calculated as the amount of test compound causing 50% inhibition of LTB₄ or PGF2α formation.

A further test addresses T1, cellular 5-lipoxygenase (Rattus norvegicus, UniProt P12527).
T1 construct: ARBL/ARBC Whole Cell 5-Lipoxygenase and Cyclooxygenase Assays; host or cells: RBL-1 (rat basophilic leukemia) cells
T1 sequence (P12527 1-673): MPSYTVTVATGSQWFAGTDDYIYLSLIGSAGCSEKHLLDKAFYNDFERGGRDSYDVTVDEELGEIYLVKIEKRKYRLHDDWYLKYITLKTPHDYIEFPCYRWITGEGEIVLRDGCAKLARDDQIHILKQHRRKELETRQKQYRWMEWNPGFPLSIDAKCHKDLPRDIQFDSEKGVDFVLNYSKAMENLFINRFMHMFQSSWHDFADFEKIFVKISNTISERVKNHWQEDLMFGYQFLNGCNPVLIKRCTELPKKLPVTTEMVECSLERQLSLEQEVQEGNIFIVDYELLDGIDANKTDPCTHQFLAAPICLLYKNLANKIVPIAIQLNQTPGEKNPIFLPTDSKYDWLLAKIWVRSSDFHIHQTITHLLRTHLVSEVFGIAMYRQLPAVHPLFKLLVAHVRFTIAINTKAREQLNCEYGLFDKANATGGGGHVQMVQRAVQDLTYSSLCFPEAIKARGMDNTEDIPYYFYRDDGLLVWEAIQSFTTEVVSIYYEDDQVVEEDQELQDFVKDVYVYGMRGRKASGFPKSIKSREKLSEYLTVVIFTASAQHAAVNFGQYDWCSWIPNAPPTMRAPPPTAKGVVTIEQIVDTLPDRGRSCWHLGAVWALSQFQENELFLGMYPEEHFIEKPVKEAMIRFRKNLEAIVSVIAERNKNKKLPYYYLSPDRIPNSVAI
Description: ARBL whole cell 5-lipoxygenase assay (LTB₄ formation in RBL-1 cells). It is filed as cell-based. The note with it: A23187 stimulated, LTB₄ by RIA, read-out: ARBL Percent inhibition of cellular 5-lipoxygenase at 16 µM. The protocol: as §1

For test [2], the system named is carrageenan footpad edema. The test is described as follows: Carrageenan-induced rat foot paw edema-2 (CFE-2) assay. As to conditions: dosed one hour before carrageenan, edema measured five hours after. Type of test: in vivo. The protocol: Carrageenan-Induced Rat Foot Paw Edema-2 (CEF-2) Assay: Protocol
Carrageenan solution (1% w/v) is prepared by dissolving 100 mg carrageenan (Marine Colloidal Div., Springfield, NJ) in 10 ml of sterile saline (0.9%) solution (Travenol). The solution is vortexed for 30 to 45 minutes. Animals are dosed with compound one hour before carrageenan challenge. Foot paw edema is induced by injecting 0.10 ml of the 1% carrageenan subcutaneously into the plantar portion of the right hind paw of each rat under light anesthesia. Initial foot paw volume is measured immediately following carrageenan challenge using mercury plethysmography (Buxco Electronics). Edemia is measured five hours after carrageenan. The difference between the five-hour and the initial paw volume is expressed as delta edema. The delta edema for each test group of animals is used to calculate the percent inhibition of edema achieved by the compound at the test dose compared with the vehicle control group. The ID₄₀ (the dose at which swelling is inhibited by 40%) is calculated by probit analysis for the dose at which 40 percent inhibition occurs.

[3] abbreviates: 2-thioxo-4-oxazolidinone series.

`COc1cc(C=C2SC(=O)NC2=O)ccc1O` [Example 3] registered an inhibition at 33 µM in the test with human basophils (thiazolidinedione series) of 81%.

As to `O=C1NC(=S)OC1=Cc1ccc(O)c(Br)c1` [Example 13, 5-[(3-Bromo-4-hydroxyphenyl)methylene]-2-thioxo-4-oxazolidinone], the inhibition at 33 µM in the test with human basophils (setting [3]) came out at 66%.

In the test with human basophils (setting [3]), `COc1cc(C=C2OC(=S)NC2=O)cc(OC)c1OC` [Example 10, 2-Thioxo-5-[(3,4,5-trimethoxyphenyl)methylene]-4-oxazolidinone] showed an inhibition at 33 µM of 76%.

On to `CC(C)(C)c1cc(C=C2OC(=O)NC2=O)cc(C(C)(C)C)c1O` [Example 15], for which the “ARBC Percent inhibition of cellular 5-cyclooxygenase at 16 µM” value (“ARBC Percent inhibition” for short) in test [1] amounted to 89%. In addition, at cellular 5-lipoxygenase, the inhibition at 16 µM was 95%. In addition, the “CFE Percent inhibition of carrageenan footpad edema (CFE) test” value (“CFE Percent inhibition” for short) was 18.5 (1) % in test [2] (dose 1 mg/kg), 23.5 (3) % in test [2] (dose 3 mg/kg), 36.8 (10) % in test [2] (dose 10 mg/kg) and 39.4 (30) % in test [2] (dose 30 mg/kg).

Turning to `COc1cc(OC)c(OC)cc1C=C1OC(=S)NC1=O` [Example 9, 2-Thioxo-5-[(2,4,5-trimethoxyphenyl)methylene]-4-oxazolidinone], in the test with human basophils (setting [3]), the “HHB % Inhibition of Histamine Release at 33 µM” value is reported as “*”.

In the case of `COc1ccc(C=C2OC(=S)NC2=O)cc1OC` [Example 5, 5-[(3,4-Dimethoxyphenyl)methylene]-2-thioxo-4-oxazolidinone], in the test with human basophils (setting [3]), at 33 µM the inhibition was 43%.

In the test with human basophils (thiazolidinedione series), `COc1cc(C=C2SC(=O)NC2=O)cc(OC)c1O` [Example 1, 5-[(4-Hydroxy-3,5-dimethoxyphenyl)methylene]-2,4-thiazolidinedione] came in with an inhibition at 33 µM of 60%.

In the test on human basophils (setting [3]), `COc1cc(C=C2OC(=S)NC2=O)ccc1O` [Example 4, 5-[(4-Hydroxy-3-methoxyphenyl)methylene]-2-thioxo-4-oxazolidinone] displayed an inhibition at 33 µM of 77%.

`COc1cc(C=C2OC(=S)NC2=O)cc(Br)c1O` [Example 8, 5-[(3-Bromo-4-hydroxy-5-methoxyphenyl)methylene]-2-thioxo-4-oxazolidinone]: the “HHB % Inhibition of Histamine Release at 33 µM” value in the test with human basophils (setting [3]) was “*”.

As for `COc1cc(C=C2OC(=S)NC2=O)cc(OC)c1O` [Example 6, 5-[(4-Hydroxy-3,5-dimethoxyphenyl)methylene]-2-thioxo-4-oxazolidinone], in the test with human basophils (setting [3]), at 33 µM the inhibition was 89%.

With `CC(C)(C)c1cc(C=C2SC(=O)NC2=O)cc(C(C)(C)C)c1O` [Example 2, 5-[[3,5-Bis(1,1-dimethylethyl)-4-hydroxyphenyl]methylene]-2,4-thiazolidinedione], the “ARBC Percent inhibition” value in test [1] came to 95%. The inhibition at 33 µM with human basophils (thiazolidinedione series) came out at 49%. In addition, the inhibition at 16 µM at cellular 5-lipoxygenase was determined as 100%. In addition, the “CFE Percent inhibition” value in test [2] (dose 1 mg/kg) is 31.8 (1) %; in test [2] (dose 3 mg/kg), 39.8 (3) %; in test [2] (dose 10 mg/kg), 53.7 (10) %; in test [2] (dose 30 mg/kg), 58.8 (30) %.

On to `CC(C)(C)c1cc(C=C2OC(=S)NC2=O)cc(C(C)(C)C)c1O` [Example 14], for which the “ARBC Percent inhibition” value in test [1] is 86%. Besides, the inhibition at 16 µM at cellular 5-lipoxygenase turned out to be 92%. Besides, the “CFE Percent inhibition” value in test [2] (dose 1 mg/kg) was 44.1 (1) %; in test [2] (dose 3 mg/kg) it was 41.1 (3) %; in test [2] (dose 10 mg/kg) it was 32.1 (10) %; in test [2] (dose 30 mg/kg), 40.4 (30) %.

Take `COc1cc(C=C2OC(=O)NC2=O)cc(OC)c1O` [Example 16, 5-[(4-Hydroxy-3,5-dimethoxyphenyl)methylene]-2,4-oxazolidinedione]: the “ARBC Percent inhibition” value in test [1] is “N^(4)”. For the same compound, the inhibition at 16 µM on cellular 5-lipoxygenase was determined as 67%.

(Values after patent publication EP0343643B1, “Arylmethylenyl derivatives of thiazolidnones, imidazolidinones and oxazolidinones useful as antiallergy agents and antiinflamatory agents” (WARNER-LAMBERT COMPANY, priority 1988, dated 1989).)
